Assay results as given in ChEMBL document CHEMBL5303573, “Mapping human microbiome drug metabolism by gut bacteria and their genes” (Nature, 2019).

Key:
[1] = akkermansia muciniphila, 12 h, 2 µM
Description: The drug is tested on Akkermansia muciniphila strain: ATCC BAA-835 for biotransformation. The drug concentrations were measured before and after a 12-h incubation by liquid-chromatography-coupled mass spectrometry (LC–MS)

[2] = bacteroides thetaiotaomicron, 12 h, 2 µM
Description: The drug is tested on Bacteroides thetaiotaomicron strain: 7330 for biotransformation. The drug concentrations were measured before and after a 12-h incubation by liquid-chromatography-coupled mass spectrometry (LC–MS)

[3] = The drug is tested on Bacteroides coprophilus strain: DSM18228 for biotransformation. The drug concentrations were measured before and after a 12-h incubation by liquid-chromatography-coupled mass spectrometry (LC–MS); conditions: 2 µM
[4] = bacteroides fragilis, 12 h, 2 µM
Description: The drug is tested on Bacteroides fragilis strain: 3397 (T10) for biotransformation. The drug concentrations were measured before and after a 12-h incubation by liquid-chromatography-coupled mass spectrometry (LC–MS)

[5] = parabacteroides distasonis, 12 h, 2 µM
Description: The drug is tested on Parabacteroides distasonis strain: ATCC8503 for biotransformation. The drug concentrations were measured before and after a 12-h incubation by liquid-chromatography-coupled mass spectrometry (LC–MS)

[6] = The drug is tested on Escherichia coli strain: BW25113 for biotransformation. The drug concentrations were measured before and after a 12-h incubation by liquid-chromatography-coupled mass spectrometry (LC–MS); conditions: 2 µM
[7] = The drug is tested on Bacteroides finegoldii strain: DSM17565 for biotransformation. The drug concentrations were measured before and after a 12-h incubation by liquid-chromatography-coupled mass spectrometry (LC–MS); conditions: 2 µM
[8] = bacteroides intestinalis, 12 h, 2 µM
Description: The drug is tested on Bacteroides intestinalis strain: DSM17393 for biotransformation. The drug concentrations were measured before and after a 12-h incubation by liquid-chromatography-coupled mass spectrometry (LC–MS)

[9] = The drug is tested on Ruminococcus lactaris strain: ATCC29176 for biotransformation. The drug concentrations were measured before and after a 12-h incubation by liquid-chromatography-coupled mass spectrometry (LC–MS); conditions: 2 µM
[10] = The drug is tested on Bacteroides caccae strain: ATCC43185 for biotransformation. The drug concentrations were measured before and after a 12-h incubation by liquid-chromatography-coupled mass spectrometry (LC–MS); conditions: 2 µM
[11] = The drug is tested on Bacteroides sp. WH2 strain: WH2 for biotransformation. The drug concentrations were measured before and after a 12-h incubation by liquid-chromatography-coupled mass spectrometry (LC–MS); conditions: bacteroides sp. wh2, 12 h, 2 µM
[12] = The drug is tested on Eubacterium ventriosum strain: ATCC27560 for biotransformation. The drug concentrations were measured before and after a 12-h incubation by liquid-chromatography-coupled mass spectrometry (LC–MS); format: ADME; parameters: dose 2 uM, timepoint 0 vs 12 hours; conditions: 2 µM
[13] = roseburia intestinalis, 12 h, 2 µM
Description: The drug is tested on Roseburia intestinalis strain: L1-82 for biotransformation. The drug concentrations were measured before and after a 12-h incubation by liquid-chromatography-coupled mass spectrometry (LC–MS)

[14] = The drug is tested on Ruminococcus torques strain: ATCC27756 for biotransformation. The drug concentrations were measured before and after a 12-h incubation by liquid-chromatography-coupled mass spectrometry (LC–MS); format: ADME; parameters: dose 2 uM, timepoint 0 vs 12 hours; conditions: 2 µM
[15] = The drug is tested on Anaerotruncus colihominis strain: DSM17241 for biotransformation. The drug concentrations were measured before and after a 12-h incubation by liquid-chromatography-coupled mass spectrometry (LC–MS); conditions: 2 µM
[16] = The drug is tested on Bifidobacterium breve strain: DSM20213 for biotransformation. The drug concentrations were measured before and after a 12-h incubation by liquid-chromatography-coupled mass spectrometry (LC–MS); conditions: 2 µM
[17] = The drug is tested on Bacteroides dorei strain: DSM17855 for biotransformation. The drug concentrations were measured before and after a 12-h incubation by liquid-chromatography-coupled mass spectrometry (LC–MS); conditions: phocaeicola dorei, 2 µM
[18] = bifidobacterium adolescentis, 12 h, 2 µM
Description: The drug is tested on Bifidobacterium adolescentis strain: ATCC 15703 for biotransformation. The drug concentrations were measured before and after a 12-h incubation by liquid-chromatography-coupled mass spectrometry (LC–MS)

[19] = The drug is tested on Collinsella aerofaciens strain: ATCC25986 for biotransformation. The drug concentrations were measured before and after a 12-h incubation by liquid-chromatography-coupled mass spectrometry (LC–MS); conditions: 2 µM
[20] = The drug is tested on Dorea formicigenerans strain: ATCC27755 for biotransformation. The drug concentrations were measured before and after a 12-h incubation by liquid-chromatography-coupled mass spectrometry (LC–MS); conditions: 2 µM

Measured: Bacterial Biotransformation

CC(C)C[C@H]1C(=O)N2CCC[C@H]2[C@]2(O)O[C@](NC(=O)[C@@H]3C=C4c5cccc6[nH]c(Br)c(c56)C[C@H]4N(C)C3)(C(C)C)C(=O)N12.CS(=O)(=O)O [BROMOCRIPTINE MESYLATE]
Compound metabolized: all assays above

CCN(CC)CCOCCOC(=O)C1(c2ccccc2)CCCC1.O=C(O)CC(O)(CC(=O)O)C(=O)O [CARBETAPENTANE CITRATE]
Compound NOT metabolized: [9]
Compound metabolized: all other assays above

COc1ccccc1OCCNCC(O)COc1cccc2[nH]c3ccccc3c12 (stereo not given) [CARVEDILOL]
Compound NOT metabolized: [4] | [13] | [14] | [16] | [18] | [20]
Compound metabolized: all other assays above

Clc1cccc(Cl)c1N=C1NCCN1 [CLONIDINE]
Compound metabolized: [2] | [3] | [4] | [17]
Compound NOT metabolized: all other assays above

C#C[C@]1(O)CC[C@H]2[C@@H]3CCC4=Cc5oncc5C[C@]4(C)[C@H]3CC[C@@]21C [DANAZOL]
Compound NOT metabolized: [3]
Compound metabolized: all other assays above

CC(=O)OCC(=O)[C@@]12N=C(C)O[C@@H]1C[C@H]1[C@@H]3CCC4=CC(=O)C=C[C@]4(C)[C@H]3[C@@H](O)C[C@@]12C [DEFLAZACORT]
Compound metabolized: all assays above

CCN(CC)C(=O)/C(C#N)=C/c1cc(O)c(O)c([N+](=O)[O-])c1 [ENTACAPONE]
Compound metabolized: all assays above

CN1C[C@H](C(=O)N[C@]2(C)O[C@@]3(O)[C@@H]4CCCN4C(=O)[C@H](Cc4ccccc4)N3C2=O)C=C2c3cccc4[nH]cc(c34)C[C@H]21.CN1C[C@H](C(=O)N[C@]2(C)O[C@@]3(O)[C@@H]4CCCN4C(=O)[C@H](Cc4ccccc4)N3C2=O)C=C2c3cccc4[nH]cc(c34)C[C@H]21.O=C(O)C(O)C(O)C(=O)O [ERGOTAMINE TARTRATE]
Compound NOT metabolized: [12] | [13] | [14] | [20]
Compound metabolized: all other assays above
